The source of these data is PMC4704863 (Angewandte Chemie (International ed. in English), 2014).

Assay [1] addresses T1, hY4R (Homo sapiens, UniProt P50391). Briefly: Arr3–receptor interaction by BRET. In kind it is cell-based. To be noted: arr3 association after 10 min. For orientation: In BRET a luciferase serves as donor, and the signal depends on an acceptor being close.
The target in assay [2] is T1, hY4R. In kind it is cell-based. To be noted: Col-24 epithelial layers, response to 10 nM hPP after prestimulation.
Assay [3] relates to Col-24 epithelial layers. The assay is described as follows: Antisecretory responses. In kind it is cell-based, human.
For assay [4], the target named is human neuropeptide Y receptor Y4 (hY4R) (human) (UniProt P50391). Briefly: radioligand binding.
human neuropeptide Y receptor Y4 (hY4R) (human), sequence (P50391 whole entry): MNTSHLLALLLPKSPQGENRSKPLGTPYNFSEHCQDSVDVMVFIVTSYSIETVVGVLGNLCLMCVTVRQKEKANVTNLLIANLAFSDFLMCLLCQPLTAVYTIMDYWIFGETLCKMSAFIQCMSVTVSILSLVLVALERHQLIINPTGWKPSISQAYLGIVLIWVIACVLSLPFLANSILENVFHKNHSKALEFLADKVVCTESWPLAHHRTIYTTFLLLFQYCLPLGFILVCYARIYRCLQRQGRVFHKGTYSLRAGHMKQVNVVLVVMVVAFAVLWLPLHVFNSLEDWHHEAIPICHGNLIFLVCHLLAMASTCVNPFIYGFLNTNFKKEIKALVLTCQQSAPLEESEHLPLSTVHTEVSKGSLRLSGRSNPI
Assay [5] concerns the target human neuropeptide Y receptor Y4 (hY4R) (human, UniProt P50391 1-375). Briefly: radioligand binding.
The mark [6] stands for this setting: Col-24 epithelial layers, 100 nM peptide.

Ends that are not written are not given here. Peptide text beside a SMILES is read from it. * marks the point of attachment. Palmitoyl = CCCCCCCCCCCCCCCC(=O)*

T1 sequence (P50391 whole entry): as above
human neuropeptide Y receptor Y4 (hY4R), sequence (P50391 whole entry): as above

Take `CCCCCCCCCCCCCCCC(=O)NCCCC[C@H](NC(=O)[C@H](C)NC(=O)[C@H](Cc1ccc(O)cc1)NC(=O)[C@H](CCC(N)=O)NC(=O)[C@H](C)NC(=O)[C@H](CCSC)NC(=O)[C@H](CCC(N)=O)NC(=O)[C@H](CCC(=O)O)NC(=O)[C@@H]1CCCN1C(=O)[C@@H](NC(=O)[C@H](C)NC(=O)[C@H](CC(N)=O)NC(=O)[C@H](CC(=O)O)NC(=O)CNC(=O)[C@@H]1CCCN1C(=O)[C@H](Cc1ccc(O)cc1)NC(=O)[C@@H](NC(=O)[C@@H]1CCCN1C(=O)[C@H](CCC(=O)O)NC(=O)[C@H](CC(C)C)NC(=O)[C@@H]1CCCN1C(=O)[C@H](C)N)C(C)C)[C@@H](C)O)C(=O)N[C@@H](CC(=O)O)C(=O)N[C@@H](CC(C)C)C(=O)N[C@@H](CCCNC(=N)N)C(=O)N[C@@H](CCCNC(=N)N)C(=O)N[C@@H](Cc1ccc(O)cc1)C(=O)N[C@H](C(=O)N[C@@H](CC(N)=O)C(=O)N[C@@H](CCSC)C(=O)N[C@@H](CC(C)C)C(=O)N[C@H](C(=O)N[C@@H](CCCNC(=N)N)C(=O)N[C@@H](CCC(N)=O)C(=O)N[C@@H](CCCNC(=N)N)C(=O)N[C@@H](Cc1ccc(O)cc1)C(N)=O)[C@@H](C)O)[C@@H](C)CC` [3A] (H-APLEPVYPGDNATPEQMAQYAK(Palmitoyl)DLRRYINMLTRQRY-NH2; N-terminus and C-terminus assumed): the “arr3 recruitment, maximal netBRET (BRETmax)” value in assay [1] is given as “increased arr3 recruitment”. Besides, the “Desensitization of hY4R after prestimulation” value in assay [2] was “concentration-dependent desensitization”. In addition, the “Concentration–response in Col-24 cells (potency and efficacy)” value in assay [3] (Col-24 cells, Isc) is “good activity and increased efficacy”. Besides, in assay [3] (setting [6]), the “Isc response, time course” value is on record as “prolonged reductions in Isc” and the “Onset of Isc response” value is listed as “delayed”. Further, the “Maximum of Isc response” value in assay [3] (Col-24 epithelial layers, 100 nM peptide, compared with 2A) was “higher maximum than the parental peptide”.

As to “APLEPVYPGDNATPEQMAQYAKDLRRYINMLTRQRY-NH2 [2A]”, in assay [1], the “arr3 recruitment, maximal netBRET (BRETmax)” value is “robust arr3 recruitment”. For the same molecule, the “Desensitization of hY4R after prestimulation” value in assay [2] is “concentration-dependent desensitization”. For the same molecule, in assay [3] (setting [6]), the “Isc response, time course” value is “rapid and transient activity”; the “Time of maximum Isc effect” value is recorded as “about 5 min”.

For orientation: IC50 means the concentration at which inhibition is half-maximal. Read a high IC50 as lower potency. “PEG5-modified [K^22,Q^34]hPP (4A) (peptide)” yielded an IC50 in assay [4] of 36.8 nM.

In assay [4], “PEG22-modified [K^22,Q^34]hPP (5A) (peptide)” gave an IC50 of 94.2 nM.

Take “palmitoylated [K^22,Q^34]hPP (3A) (peptide)”: the half-inhibitory concentration (IC50) in assay [4] was 1.2 nM. This IC50 is about 78-fold lower than that of the molecule before.

For the molecule APLEPVYPGDNATPEQMAQYAKDLRRYINMLTRQRY (ends and bridges not checked) [lead peptide 2A ([Q^34]hPP core sequence, Obinepitide)], the IC50 in assay [5] worked out at 0.5 nM. This lies in the sub-nanomolar range.
